# Experimental data taken from US4167580A, “Compositions and method of use to treat arthritic disease with m-fluorobenzimidoylacetonitrile” (American Cyanamid Company, priority 1978, dated 1979).
# Assays:
# Erythema in Guinea Pigs = test: Ultraviolet induced erythema in guinea pigs, topical application; assay type: in vivo, Albino guinea pigs; details: 1% in ethyl alcohol
# Description: Albino guinea pigs were depilitated on their flanks, the evening before testing, with a standard mixture of barium sulfide and gum acacia. On the morning of the test at 0 hour they were restrained in a plastic container which allows exposure of 3 circular spots. They were then exposed to ultraviolet irradiation from a "Hanovia" Kromayer lamp, model 10, for 60 seconds. Immediately after exposure to ultraviolet light, the guinea pigs were treated by dissolving the test compound in ethyl alcohol at various concentrations and swabbing the UV exposed areas with the aid of a cottom tipped applicator stick. At one and four hours, the degree of erythema for each of the three sites was assessed according to the following scoring system: 0=no erythema, 0.5=incomplete circle or faint erythema and 1.0=complete circle of distinct erythema. Thus, the maximum score for each animal was 3.0.
# [1] = system: Carrageenin Induced Edema of the Rat Paw; test: Carrageenin induced edema of the rat paw (acute anti-inflammatory activity); assay type: in vivo, Royal Hart, Wistar strain rats; details: 250 mg./kg. by gavage, 5 hours after drug (4 hours after carrageenin)
# Description: In determining the acute anti-inflammatory activity of benzimidoylacetonitrile, Royal Hart, Wistar strain rats ranging in weight from 80 to 90 grams were used. The rats were fasted overnight prior to dosing but had free access to water. The compound was administered in aqueous suspension, by gavage, in a volume of 1.7 ml. per 50 grams of rat [corresponds by hydration volume used by Winter et al., Proc. Soc. […] The phlogistic agent used was carrageenin prepared as a sterile 1% suspension in 0.9% aqueous sodium chloride for routine testing. A volume of 0.05 ml. was injected through a 26 gauge needle into the planter tissue of the right hind paw. Measurements were made 5 hours after drug administration (4 hours after carrageenin challenge). Volumes of both the normal and carrageenin inflamed feet were determined. The difference between the two measurements is considered to be the increased edema due to the carrageenin administration.
# [2] = system: Body Temperature of Pyretic Rats; test: Body temperature in yeast induced pyrexia; assay type: in vivo, Royal Hart, Wistar strain rats; details: 250 mg./kg. by gavage 17 hours after yeast; measured 19 hours post challenge
# Description: The effect of benzimidoylacetonitrile on body temperature in yeast induced pyrexia was determined by the following procedure. Groups of three Royal Hart, Wistar strain rats weighing 80±5 grams were injected subcutaneously in the nape of the neck with 0.6 ml. of a 40% suspension of dried brewers yeast in distilled water. […] At 19 hours post challenge the rectal temperature of each rat was measured with an electric thermometer. Each dose response experiment was replicated one or more times.
# [3] = system: Adjuvant Arthritis in Rats; test: Adjuvant induced arthritis in rats (chronic inflammation with joint destruction); assay type: in vivo, Royal Hart, Wistar strain rats; details: once daily days 0-13
# From the text: Adjuvant induced experimental polyarthritis is a specific systemic disease of the rat which shares interesting similarities with rheumatoid arthritis. Specifically, the histology of the two diseases bears a remarkable resemblance as shown by C. M. Pearson et al., Am. J. Pathol. 42, 73 (1963). E. M. Glenn, Am. J. Vet. Res. 27 (116), 339 (1966) has classified adjuvant induced polyarthritis as a crippling and permanent deformity resulting from diffuse connective tissue involvement around certain susceptible joints in the rat. Zahiri et al., Can. Med. Ass. J. 101, 269 (1969) have shown that the fusiform swelling of the distal joints is associated with edema, congestion and synovitis including pannus formation, all of which precede the ultimate destruction of bone and cartilage. Furthermore, Zahiri et al. indicate that the cartilage destruction in the joint is due to an invasive pannus which originates in the marginal synovium and extends across the articular surface to erode it. […] See S. Wong et al., J. Pharm. & Exptl. Ther. 185, 127 (1973) and G. R. Bobalick et al., Agents & Actions 4, 364 (1974). In a similar manner, inhibition of the progress of arthritis in paws of rats treated with the compounds of this invention also lessens associated joint deterioration.
# Groups of three Royal Hart, Wistar strain rats weighing 200±10 grams each were injected intradermally in the right hind paw with Freund's adjuvant (dried human tubercle bacilli in a mineral oil vehicle) at a dose of 2 mg./kg. of body weight. Test compounds were administered orally in a 1.5% staruh vehicle at various doses once daily on days 0 through 13 post challenge. Control rats were treated in a similar manner, but given only starch vehicle. On the 14th and 21st day post challenge the diameter of the injected paw (primary lesion) was measured by micrometer caliper. The volume of inflamed paws were estimated from these measurements and the results are expressed as percent inhibition of swelling as compared to controls. At the same time, the other inflamed sites, such as ears, paws and tail (secondary lesions) were observed and each rat was graded as to degree of inflammation and swelling present. The grading is based on a scale of 0 to 24, where 0 represents a complete absence of induced arthritic nodules and 24 represents the maximum degree of inflammation. The mean grade for each treated group is calculated and the effects of each compound are expressed as percent inhibition of the control grade. Table III records the results of these tests conducted with benzimidoylacetonitrile, m-fluorobenzimidoylacetonitrile and p-fluorobenzimidoylacetonitrile and known anti-inflammatory agents. The active compounds of the present invention suppress the progression of the arthritis and associated joint deterioration. Of particular interest is the low mortality observed with benzimidoylacetonitrile treated rats relative to either controls or rats treated with standard compounds.
smiles,measurement,setting,value
CCCCC1C(=O)N(c2ccccc2)N(c2ccccc2)C1=O [Phenylbutazone],Erythema Score (Avg.) 1 Hr.,"Erythema in Guinea Pigs; 1 hour, maximum score 3.0, ethyl alcohol control 2.5",0.5
same,Erythema Score (Avg.) 4 Hr.,"Erythema in Guinea Pigs; 4 hours, maximum score 3.0, ethyl alcohol control 3.0",2.4
same,C/T Edema Ratio (edema of control animals/edema of treated animals),[1],2.3
same,Decrease In Body Temp.,[2],1.5 °C
same,"% Inhibition of Control Grade (secondary lesion), Day 14",[3]; 18.8 mg./kg. oral,4%
same,"% Inhibition of Control Grade (secondary lesion), Day 21",[3]; 18.8 mg./kg. oral,8%
same,"% Inhibition of Swelling (primary lesion), Day 14",[3]; 18.8 mg./kg. oral,31%
same,"% Inhibition of Swelling (primary lesion), Day 21",[3]; 18.8 mg./kg. oral,7%
same,Dead/Treated At 21 Days,[3]; 18.8 mg./kg. oral,2/21
same,"Mean Weight Gain, Day 14",[3]; 18.8 mg./kg. oral,50 grams
same,"Mean Weight Gain, Day 21",[3]; 18.8 mg./kg. oral,45 grams
same,"% Inhibition of Control Grade (secondary lesion), Day 14",[3]; 37.5 mg./kg. oral,18%
same,"% Inhibition of Control Grade (secondary lesion), Day 21",[3]; 37.5 mg./kg. oral,13%
same,"% Inhibition of Swelling (primary lesion), Day 14",[3]; 37.5 mg./kg. oral,56%
same,"% Inhibition of Swelling (primary lesion), Day 21",[3]; 37.5 mg./kg. oral,14%
same,Dead/Treated At 21 Days,[3]; 37.5 mg./kg. oral,5/39
same,"Mean Weight Gain, Day 14",[3]; 37.5 mg./kg. oral,53 grams
same,"Mean Weight Gain, Day 21",[3]; 37.5 mg./kg. oral,53 grams
same,"% Inhibition of Control Grade (secondary lesion), Day 14",[3]; 75 mg./kg. oral,27%
same,"% Inhibition of Control Grade (secondary lesion), Day 21",[3]; 75 mg./kg. oral,15%
same,"% Inhibition of Swelling (primary lesion), Day 14",[3]; 75 mg./kg. oral,62%
same,"% Inhibition of Swelling (primary lesion), Day 21",[3]; 75 mg./kg. oral,28%
same,Dead/Treated At 21 Days,[3]; 75 mg./kg. oral,2/39
same,"Mean Weight Gain, Day 14",[3]; 75 mg./kg. oral,51 grams
same,"Mean Weight Gain, Day 21",[3]; 75 mg./kg. oral,50 grams
same,"% Inhibition of Control Grade (secondary lesion), Day 14",[3]; 150 mg./kg. oral,54%
same,"% Inhibition of Control Grade (secondary lesion), Day 21",[3]; 150 mg./kg. oral,31%
same,"% Inhibition of Swelling (primary lesion), Day 14",[3]; 150 mg./kg. oral,75%
same,"% Inhibition of Swelling (primary lesion), Day 21",[3]; 150 mg./kg. oral,44%
same,Dead/Treated At 21 Days,[3]; 150 mg./kg. oral,2/27
same,"Mean Weight Gain, Day 14",[3]; 150 mg./kg. oral,40 grams
same,"Mean Weight Gain, Day 21",[3]; 150 mg./kg. oral,50 grams
"N#CCC(=N)c1cccc(F)c1 [m-Fluorobenzimidoylacetonitrile, m-fluorobenzimidoylacetonitrile]","% Inhibition of Swelling (primary lesion), Day 14",[3]; 50 mg./kg. oral,40%
same,"% Inhibition of Swelling (primary lesion), Day 21",[3]; 50 mg./kg. oral,7%
same,Dead/Treated At 21 Days,[3]; 50 mg./kg. oral,1/18
same,"Mean Weight Gain, Day 14",[3]; 50 mg./kg. oral,64 grams
same,"Mean Weight Gain, Day 21",[3]; 50 mg./kg. oral,60 grams
"N#CCC(=N)c1ccc(F)cc1 [p-Fluorobenzimidoylacetonitrile, p-fluorobenzimidoylacetonitrile]","% Inhibition of Control Grade (secondary lesion), Day 14",[3]; 25 mg./kg. oral,14%
same,"% Inhibition of Control Grade (secondary lesion), Day 21",[3]; 25 mg./kg. oral,9%
same,"% Inhibition of Swelling (primary lesion), Day 14",[3]; 25 mg./kg. oral,26%
same,"% Inhibition of Swelling (primary lesion), Day 21",[3]; 25 mg./kg. oral,14%
same,Dead/Treated At 21 Days,[3]; 25 mg./kg. oral,2/18
same,"Mean Weight Gain, Day 14",[3]; 25 mg./kg. oral,53 grams
same,"Mean Weight Gain, Day 21",[3]; 25 mg./kg. oral,50 grams
same,"% Inhibition of Control Grade (secondary lesion), Day 14",[3]; 50 mg./kg. oral,27%
same,"% Inhibition of Control Grade (secondary lesion), Day 21",[3]; 50 mg./kg. oral,8%
same,"% Inhibition of Swelling (primary lesion), Day 14",[3]; 50 mg./kg. oral,43%
same,"% Inhibition of Swelling (primary lesion), Day 21",[3]; 50 mg./kg. oral,25%
same,Dead/Treated At 21 Days,[3]; 50 mg./kg. oral,4/36
same,"Mean Weight Gain, Day 14",[3]; 50 mg./kg. oral,66 grams
same,"Mean Weight Gain, Day 21",[3]; 50 mg./kg. oral,57 grams
same,"% Inhibition of Control Grade (secondary lesion), Day 14",[3]; 100 mg./kg. oral,49%
same,"% Inhibition of Control Grade (secondary lesion), Day 21",[3]; 100 mg./kg. oral,22%
same,"% Inhibition of Swelling (primary lesion), Day 14",[3]; 100 mg./kg. oral,53%
same,"% Inhibition of Swelling (primary lesion), Day 21",[3]; 100 mg./kg. oral,29%
same,Dead/Treated At 21 Days,[3]; 100 mg./kg. oral,1/18
same,"Mean Weight Gain, Day 14",[3]; 100 mg./kg. oral,78 grams
same,"Mean Weight Gain, Day 21",[3]; 100 mg./kg. oral,67 grams
